Series [1] relates to HCT-116. As to the kind of experiment: Cytotoxicity against human HCT116 cells assessed as live cells after 48 to 72 hrs by MTT assay. In kind it is functional, cell-based. In general terms: Formazan colour is commonly taken as a measure of viable cells.
In series [2] the test system is HeLa. As to the kind of experiment: Drug uptake in human HeLa cells at 1 uM after 30 mins using Nile Red by confocal microscopy. In kind it is ADME, cell-based. The settings on record: 0.5 h.
Series [3] relates to HCT-116. As to the kind of experiment: Drug uptake in human HCT116 cells at 1 uM after 30 mins by confocal microscopy. In kind it is ADME, cell-based. The settings on record: hct-116, 0.5 h.
Series [4] deals with HCT-116. As to the kind of experiment: Cytotoxicity against human HCT116 cells. In kind it is functional, cell-based.

Usually IC50 stands for the concentration needed to halve the response being measured. As for `C#CCCCCCCCCCCC#C[C@@H](O)C#C`, the 50% inhibitory concentration (IC50) in series [1] is 0.37 µM.

Turning to `C#C[C@H](O)C#CCCCCCCCCCCc1cn(CC2=C3C(C)=CC(C)=[N+]3[B-](F)(F)n3c(C)cc(C)c32)nn1`, the Drug uptake result in series [2] and in series [3] was “Active” throughout. Also, in series [1], the 50% inhibitory concentration (IC50) worked out at 10 µM. Consider `C#C[C@H](O)C#CCCCCCCCCCCc1cn(-c2cc3ccc(O)cc3oc2=O)nn1`, for which, in series [3], the Drug uptake result is on record as “Active”. The IC50 in series [1] stood at 3 µM. Take `C#C[C@H](O)C#CCCCCCCCCCCc1cn(CCCNc2ccc([N+](=O)[O-])c3nonc23)nn1`: the Drug uptake result in series [3] is given as “Active”. For the same molecule, the half-maximal inhibitory concentration (IC50) in series [1] amounted to 1.1 µM.

`C#C[C@H](O)C#CCCCCCCCCCCc1cn(CCCCc2ccc3ccc4cccc5ccc2c3c45)nn1`: the half-maximal inhibitory concentration (IC50) in series [1] came to 0.9 µM. As to `C#C[C@@H](O)/C=C/CCCCCCCCCCCCCCC`, the 50% inhibitory concentration (IC50) in series [1] was 0.09 µM; in series [4] it was 0.06 µM.

Source of the values: ChEMBL document CHEMBL3621089, “Fluorophore-tagged pharmacophores for antitumor cytotoxicity: Modified chiral lipidic dialkynylcarbinols for cell imaging” (Bioorg Med Chem Lett, 2015).
